Reference: paper PMC11965660, “Isobavachalcone ameliorates Alzheimer disease pathology by autophagy-mediated clearance of amyloid beta and inhibition of NLRP3 inflammasome in primary astrocytes and 5x-FAD mice” (Frontiers in Pharmacology, 2025)
Entries after “also recorded” stand apart in the source; their conditions may differ. Where two headings read alike, the source gives them in different places.

Tests used:
NLRP3 inflammasome = NLRP3 inflammasome activation in primary astrocytes, IL-1β and IL-18 release by ELISA; assay type: cell-based, C57BL/6J mice; conditions: for IC50: Mus musculus, Astrocyte, primary astrocytes, microglial conditional media, LPS 1 μg/ml 4 h, IBC 1 h, ATP 5 mM 30 min, ELISA
Experimental: Primary astrocytes were first treated with microglia conditional media to induce astrogliosis ([Liddelow et al., 2017]). For this, the microglia (N9) cell line, provided by Dr. Anirban Basu (National Brain Research Centre, Gurgaon, India) was cultured in RPMI-1640. N9 cells (Passage 28-35) were seeded in 24 well plate at density 0.05 × 10^6 per well. The cells were treated with 1 μg/ml LPS, and supernatant was collected after 24 h. Seeded astrocytes were then treated with the LPS stimulated N9 cells supernatant for 24 h. Thereafter, the treatment for NLRP3 inflammasome activation was given, including priming with fresh 1 μg/ml LPS for 4 h, followed by washing and IBC or MCC950 (100 nM) treatment for 1 h in incomplete media (media without fetal bovine serum). ATP at 5 mM concentration was used as secondary signal for 30 min.
The experiment was terminated by collecting the cell supernatant.
(§1) After the termination of experiments, the supernatant was collected and analyzed for levels of cytokines. For measuring IL-1β and IL-18, supernatant collected after NLRP3 inflammasome activation as mentioned above, was subjected to ELISA. For detection of IL-1β in mice cortex, mice cortices were isolated and homogenized in RIPA buffer to measure IL-1β in homogenates. The manufacturer’s protocol was followed for measuring the cytokines. The levels of measured cytokines were normalized with the total protein content of the cells. For total protein content of cell pellet lysed with lysis buffer (0.2 N NaCl and 1% Triton-X 100) was measured.
IC50 of Isobavachalcone for IL-1β and IL-18 was calculated by using GraphPad Prism 8 software using non-linear regression analysis model. Log (inhibitor) vs. response curve was plotted.

5x-FAD mice = experiment: Open field test; assay type: in vivo; conditions: 25 and 50 mg/kg oral, vs 5x-FAD control
Excerpt: (§2) Hemizygous 5x-FAD transgenic mice (B6.Cg-Tg(APPSwFlLon, PSEN1*M146L*L286V) 6799Vas/Mmjax; MMRRC Strain: 034848-JAX) on congenic C57BL/6J genetic background were used for experiments. The 5x-FAD mice were genotyped using APP-specific qPCR probes to detect the transgene as per the protocol of Jackson Laboratory. Six months old 5x-FAD mice were randomly divided into three groups (n = 5), based on their body weights, with three males and two females in each group. We used mixed-cohort of males and females for our study to exclude any gender biased effect of IBC. Also, AD symptoms are more pronounced in females than in males ([Aggarwal and Mielke, 2023]), making it possible that males and females respond differently to the drug and treatment. […]
To check the effect of IBC on the behavior of 5x-FAD mice, open field test (OFT), rotarod (Make; Ugo Basile, rota-rod for mice 7650) and radial arm maze (Make; Ugo Basile) tests were performed. […] After acclimatizing mice with rotarod for 5 days, their latency to fall was calculated on the day of analysis. […] Distance traveled, speed, time spent in corner and center zones and mobile episodes were recorded through an automated video tracking system using AnyMaze software. […] The movement of mice was tracked with the help of automated AnyMaze software connected with a tracking camera and various memory retention parameters were assessed.

IL-1β = IL-1β in mice cortex by ELISA; assay type: in vivo, 5x-FAD mice; conditions: 25 and 50 mg/kg, vs 5x-FAD control
Excerpt: as §1, §2

primary astrocytes = experiment: Cell viability assay (MTT and SRB); assay type: cell-based, C57BL/6J mice; conditions: 24 h, up to 100 μM
Experimental: For cell viability assay, primary astrocytes were seeded in 96 well plate and IBC treatment at different concentration was given for 24 h. For MTT assay, cells were treated with 1.25, 2.5, 5, 10, 20, 40, 80 and 100 μM of IBC, while for the SRB assay, 0.625, 1.25, 2.5, 5, […], 20, 40, 80 and 100 μM IBC treatment was given. MTT dye at a concentration of 2.5 mg/ml was added 4 h before experiment termination. Formazan crystals thus formed were dissolved in DMSO and absorbance was measured at 570 nm.
For the SRB assay, the experiment was terminated by adding 50% chilled TCA into the wells for 1 h. Pellets were washed five times with distilled water and kept drying. Cells were then incubated with SRB dye for 30 min at RT, followed by washing with 1% acetic acid thrice. After drying, pellets were dissolved in 10 mM Tris-HCl (pH-10.5) and absorbance was measured at 540 nm.

- IC50 (NLRP3 inflammasome; read-out: IC50 for IL-1β release): 2950 nM
- IC50 (NLRP3 inflammasome; read-out: IC50 for IL-18 release): 2750 nM
Compound: CC(C)=CCc1c(O)ccc(C(=O)/C=C/c2ccc(O)cc2)c1O [IBC, isobavachalcone]
- inhibitory effect on release of IL-1β when autophagy is inhibited (NLRP3 inflammasome; pre-treatment with 20 nM bafilomycin A1 for 1 h, ELISA and western blotting): completely reversed
- exploratory behavior in open field (5x-FAD mice): improved exploratory behavior
- IL-1β level in cortex (IL-1β): highly significant decline
- toxicity in primary astrocytes (MTT and SRB) (primary astrocytes): no toxicity; also recorded: non-toxic
